{"source": "paper PMC4984800", "about": "“A first in man, dose-finding study of the mTORC1/mTORC2 inhibitor OSI-027 in patients with advanced solid malignancies” (British Journal of Cancer, 2016)", "key": {"mTORC1": {"tested_on": "mTORC1", "design": "method as in Bhagwat et al, 2011; Falcon et al, 2011", "conditions": "ref Bhagwat et al, 2011, Falcon et al; cited from earlier work"}, "[1]": {"assay": "First-in-human trial: pharmacokinetics in plasma and urine", "format": "in vivo", "conditions": "for AUC(0-inf) / Cmax / half-life / AUC(0-t): human, plasma, oral, median (range); for half-life: read-out: T1/2 (converted); for AUC(0-t): read-out: AUC24hr", "experimental": "Blood and urine samples were collected at prespecified time points for 24 h after initial dose and at days 2–3 (S2) and after multiple doses on days 3–4 (S1) and 22–23 (S3) across dose levels. Predose samples were collected on days 8, 15 and 22. Urine samples were collected during cycle 1.\nDescriptive statistics were used to summarise the safety data, including all patients who received at least one dose of OSI-027. All patients who completed the pharmacokinetic sampling were included in the PK analyses, which used descriptive statistics to summarise AUC0–∞, AUC0–t, Cmax, Clast, Tmax, Tlast, %AUC extrapolated, T1/2, clearance (Cl/F) and volume of distribution (Vz/F). Exploratory analysis were planned to correlate pharmacodynamics and pharmacokinetics. Response to treatment was evaluated according to Response Evaluation Criteria in Solid Tumors (RECIST) ([Therasse et al, 2000])."}, "[2]": {"conditions": "5 mg, Schedule 3, 5 mg, Day 1, N=3"}, "[3]": {"conditions": "5 mg, Schedule 3, 5 mg, Day 22, N=3"}, "[4]": {"conditions": "10 mg, Schedule 1, 10 mg, Day 1, N=6"}, "[5]": {"conditions": "10 mg, Schedule 1, 10 mg, Day 3, N=6"}, "[6]": {"conditions": "10 mg, Schedule 3, 10 mg, Day 1, N=3"}, "[7]": {"conditions": "10 mg, Schedule 3, 10 mg, Day 22, N=3"}, "[8]": {"conditions": "15 mg, Schedule 1, 15 mg, Day 1, N=4"}, "[9]": {"conditions": "15 mg, Schedule 1, 15 mg, Day 3, N=4"}, "[10]": {"conditions": "20 mg, Schedule 1, 20 mg, Day 1, N=4"}, "[11]": {"conditions": "20 mg, Schedule 1, 20 mg, Day 3, N=4"}, "[12]": {"conditions": "20 mg, Schedule 3, 20 mg, Day 1, N=6"}, "[13]": {"conditions": "20 mg, Schedule 3, 20 mg, Day 22, N=5"}, "[14]": {"conditions": "25 mg, Schedule 3, 25 mg, Day 1, N=3"}, "[15]": {"conditions": "25 mg, Schedule 3, 25 mg, Day 22, N=3"}, "[16]": {"conditions": "30 mg, Schedule 1, 30 mg, Day 1, N=3"}, "[17]": {"conditions": "30 mg, Schedule 1, 30 mg, Day 3, N=3"}, "[18]": {"conditions": "35 mg, Schedule 3, 35 mg, Day 1, N=4"}}, "note": "Where two headings read alike, the source gives them in different places."}
{"compound": "COc1cccc2cc(-c3nc([C@H]4CC[C@H](C(=O)O)CC4)n4ncnc(N)c34)[nH]c12", "note": "[OSI-027]", "values": [{"measurement": "IC50", "setting": "mTORC1", "value": 22, "unit": "nM"}, {"measurement": "accumulation", "setting": "[1]; after once daily / continuous dosing", "value": "minimal accumulation"}, {"measurement": "AUC(0-inf)", "setting": "[1]; [2]", "value": 2140, "unit": "ng·h/mL"}, {"measurement": "Cmax", "setting": "[1]; [2]", "value": 236, "unit": "ng/mL"}, {"measurement": "half-life", "setting": "[1]; [2]", "value": 7.89, "unit": "h"}, {"measurement": "Cmax", "setting": "[1]; [3]", "value": 266, "unit": "ng/mL"}, {"measurement": "AUC(0-t)", "setting": "[1]; [3]", "value": 2040, "unit": "ng·h/mL"}, {"measurement": "half-life", "setting": "[1]; [3]", "value": 6.85, "unit": "h"}, {"measurement": "AUC(0-inf)", "setting": "[1]; [4]", "value": 5130, "unit": "ng·h/mL"}, {"measurement": "Cmax", "setting": "[1]; [4]", "value": 646, "unit": "ng/mL"}, {"measurement": "half-life", "setting": "[1]; [4]", "value": 5.98, "unit": "h"}, {"measurement": "Cmax", "setting": "[1]; [5]", "value": 602, "unit": "ng/mL"}, {"measurement": "AUC(0-t)", "setting": "[1]; [5]", "value": 4860, "unit": "ng·h/mL"}, {"measurement": "half-life", "setting": "[1]; [5]", "value": 7.74, "unit": "h"}, {"measurement": "AUC(0-inf)", "setting": "[1]; 10 mg, Schedule 2, 10 mg, N=4", "value": 5530, "unit": "ng·h/mL"}, {"measurement": "Cmax", "setting": "[1]; 10 mg, Schedule 2, 10 mg, N=4", "value": 705, "unit": "ng/mL"}, {"measurement": "half-life", "setting": "[1]; 10 mg, Schedule 2, 10 mg, N=4", "value": 12.3, "unit": "h"}, {"measurement": "AUC(0-inf)", "setting": "[1]; [6]", "value": 4300, "unit": "ng·h/mL"}, {"measurement": "Cmax", "setting": "[1]; [6]", "value": 547, "unit": "ng/mL"}, {"measurement": "half-life", "setting": "[1]; [6]", "value": 7.24, "unit": "h"}, {"measurement": "Cmax", "setting": "[1]; [7]", "value": 457, "unit": "ng/mL"}, {"measurement": "AUC(0-t)", "setting": "[1]; [7]", "value": 3720, "unit": "ng·h/mL"}, {"measurement": "half-life", "setting": "[1]; [7]", "value": 6.54, "unit": "h"}, {"measurement": "AUC(0-inf)", "setting": "[1]; [8]", "value": 8460, "unit": "ng·h/mL"}, {"measurement": "Cmax", "setting": "[1]; [8]", "value": 1170, "unit": "ng/mL"}, {"measurement": "half-life", "setting": "[1]; [8]", "value": 7.12, "unit": "h"}, {"measurement": "Cmax", "setting": "[1]; [9]", "value": 1270, "unit": "ng/mL"}, {"measurement": "AUC(0-t)", "setting": "[1]; [9]", "value": 9210, "unit": "ng·h/mL"}, {"measurement": "half-life", "setting": "[1]; [9]", "value": 7.69, "unit": "h"}, {"measurement": "AUC(0-inf)", "setting": "[1]; 15 mg, Schedule 2, 15 mg, N=7", "value": 25900, "unit": "ng·h/mL"}, {"measurement": "Cmax", "setting": "[1]; 15 mg, Schedule 2, 15 mg, N=7", "value": 894, "unit": "ng/mL"}, {"measurement": "half-life", "setting": "[1]; 15 mg, Schedule 2, 15 mg, N=7", "value": 19.3, "unit": "h"}, {"measurement": "AUC(0-inf)", "setting": "[1]; [10]", "value": 5780, "unit": "ng·h/mL"}, {"measurement": "Cmax", "setting": "[1]; [10]", "value": 804, "unit": "ng/mL"}, {"measurement": "half-life", "setting": "[1]; [10]", "value": 5.09, "unit": "h"}, {"measurement": "Cmax", "setting": "[1]; [11]", "value": 1350, "unit": "ng/mL"}, {"measurement": "AUC(0-t)", "setting": "[1]; [11]", "value": 5850, "unit": "ng·h/mL"}, {"measurement": "half-life", "setting": "[1]; [11]", "value": 5.97, "unit": "h"}, {"measurement": "AUC(0-inf)", "setting": "[1]; 20 mg, Schedule 2, 20 mg, N=3", "value": 9840, "unit": "ng·h/mL"}, {"measurement": "Cmax", "setting": "[1]; 20 mg, Schedule 2, 20 mg, N=3", "value": 1240, "unit": "ng/mL"}, {"measurement": "half-life", "setting": "[1]; 20 mg, Schedule 2, 20 mg, N=3", "value": 7.65, "unit": "h"}, {"measurement": "AUC(0-inf)", "setting": "[1]; [12]", "value": 9460, "unit": "ng·h/mL"}, {"measurement": "Cmax", "setting": "[1]; [12]", "value": 1300, "unit": "ng/mL"}, {"measurement": "half-life", "setting": "[1]; [12]", "value": 7.03, "unit": "h"}, {"measurement": "Cmax", "setting": "[1]; [13]", "value": 1540, "unit": "ng/mL"}, {"measurement": "AUC(0-t)", "setting": "[1]; [13]", "value": 13700, "unit": "ng·h/mL"}, {"measurement": "half-life", "setting": "[1]; [13]", "value": 9.67, "unit": "h"}, {"measurement": "AUC(0-inf)", "setting": "[1]; [14]", "value": 25100, "unit": "ng·h/mL"}, {"measurement": "Cmax", "setting": "[1]; [14]", "value": 1640, "unit": "ng/mL"}, {"measurement": "half-life", "setting": "[1]; [14]", "value": 11.1, "unit": "h"}, {"measurement": "Cmax", "setting": "[1]; [15]", "value": 1790, "unit": "ng/mL"}, {"measurement": "AUC(0-t)", "setting": "[1]; [15]", "value": 15200, "unit": "ng·h/mL"}, {"measurement": "half-life", "setting": "[1]; [15]", "value": 15, "unit": "h"}, {"measurement": "AUC(0-inf)", "setting": "[1]; [16]", "value": 45100, "unit": "ng·h/mL"}, {"measurement": "Cmax", "setting": "[1]; [16]", "value": 3620, "unit": "ng/mL"}, {"measurement": "half-life", "setting": "[1]; [16]", "value": 11.3, "unit": "h"}, {"measurement": "Cmax", "setting": "[1]; [17]", "value": 2120, "unit": "ng/mL"}, {"measurement": "AUC(0-t)", "setting": "[1]; [17]", "value": 37800, "unit": "ng·h/mL"}, {"measurement": "half-life", "setting": "[1]; [17]", "value": 10, "unit": "h"}, {"measurement": "AUC(0-inf)", "setting": "[1]; [18]", "value": 20200, "unit": "ng·h/mL"}, {"measurement": "Cmax", "setting": "[1]; [18]", "value": 1590, "unit": "ng/mL"}, {"measurement": "half-life", "setting": "[1]; [18]", "value": 7.24, "unit": "h"}]}
